From patent US6355799B1, “Substituted benzene compounds, process for their preparation, and herbicidal and defoliant compositions containing them” (ISK Americas Incorporated, priority 1997, dated 2002)

How the values were obtained:
Assay type in all cases: in vivo
[1] = tested on: upland rice (Oryza sp., var. Tebonnet, RICE); test: Pre-emerge test, crop safety; conditions: rating scale 0-100, 14 days after application
In short: (§1)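 Herbicidal damage is scored 0 (none) to 100 (complete plant death) two weeks after a simulated field spray. Rates span 15–1000 g ai/ha, delivered in acetone at 187 l/ha. For post-emergence treatments, plants have 2–3 leaves and the spray carries 0.25% v/v non-ionic surfactant.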

[2] = tested on: field corn (Zea mays L., var. Dekalb 535, CORN); test: Pre-emerge test, crop safety; conditions: rating scale 0-100, 14 days after application
In short: as §1

[3] = tested on: redroot pigweed (Amaranthus retroflexus, AMARE); test: Pre-emerge test, greenhouse herbicide activity screening; conditions: rating scale 0-100, 14 days after application
In short: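 Compounds in acetone were track-sprayed at 15-1000 g ai/ha (187 l/ha) on sandy loam pots: pre-emerge one day after seeding, post-emerge at 2-3 leaf stage with 0.25% v/v non-ionic surfactant. Phytotoxicity was rated 14 days later on a 0 (no damage) to 100 (complete death) scale.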

[4] = tested on: upland rice (Oryza sp., var. Tebonnet, RICE); test: Post-emerge test, crop safety; conditions: rating scale 0-100 (0 no damage, 100 complete death), 14 days after application
In short: as §1

[5] = tested on: field corn (Zea mays L., var. Dekalb 535, CORN); test: Post-emerge test, crop safety; conditions: rating scale 0-100 (0 no damage, 100 complete death), 14 days after application
In short: as §1

[6] = tested on: sicklepod (Cassia obtusifolia, CASOB); test: Pre-emerge test, greenhouse herbicide activity screening; conditions: rating scale 0-100, 14 days after application
In short: as §1

[7] = tested on: lambsquarters (Chenopodium album, CHEAL); test: as above; conditions: rating scale 0-100, 14 days after application
In short: as §1

[8] = tested on: johnsongrass (Sorghum halepense, SORHA); test: as above; conditions: rating scale 0-100, 14 days after application
In short: as §1

[9] = tested on: velvetleaf (Abutilon theophrasti, ABUTH); test: as above; conditions: rating scale 0-100, 14 days after application
In short: as §1

[10] = tested on: barnyardgrass (Echinochloa crus-galli, ECHCG); test: as above; conditions: rating scale 0-100, 14 days after application
In short: as §1

[11] = tested on: large crabgrass (Digitaria sanguinalis, DIGSA); test: as above; conditions: rating scale 0-100, 14 days after application
In short: as §1

[12] = tested on: ivyleaf morningglory (Ipomoea hederacea, IPOHE); test: as above; conditions: rating scale 0-100, 14 days after application
In short: as §1

[13] = tested on: green foxtail (Setaria viridis, SETVI); test: as above; conditions: rating scale 0-100, 14 days after application
In short: as §1

[14] = tested on: sicklepod (Cassia obtusifolia, CASOB); test: Post-emerge test, greenhouse herbicide activity screening; conditions: rating scale 0-100 (0 no damage, 100 complete death), 14 days after application
In short: as §1

[15] = tested on: lambsquarters (Chenopodium album, CHEAL); test: as above; conditions: rating scale 0-100 (0 no damage, 100 complete death), 14 days after application
In short: as §1

[16] = tested on: johnsongrass (Sorghum halepense, SORHA); test: as above; conditions: rating scale 0-100 (0 no damage, 100 complete death), 14 days after application
In short: as §1

[17] = tested on: velvetleaf (Abutilon theophrasti, ABUTH); test: as above; conditions: rating scale 0-100 (0 no damage, 100 complete death), 14 days after application
In short: as §1

[18] = tested on: redroot pigweed (Amaranthus retroflexus, AMARE); test: as above; conditions: rating scale 0-100 (0 no damage, 100 complete death), 14 days after application
In short: as §1

[19] = tested on: common ragweed (Ambrosia artemisizfolia L., AMBEL); test: as above; conditions: rating scale 0-100 (0 no damage, 100 complete death), 14 days after application
In short: as §1

[20] = tested on: barnyardgrass (Echinochloa crus-galli, ECHCG); test: as above; conditions: rating scale 0-100 (0 no damage, 100 complete death), 14 days after application
In short: as §1

[21] = tested on: large crabgrass (Digitaria sanguinalis, DIGSA); test: as above; conditions: rating scale 0-100 (0 no damage, 100 complete death), 14 days after application
In short: as §1

[22] = tested on: ivyleaf morningglory (Ipomoea hederacea, IPOHE); test: as above; conditions: rating scale 0-100 (0 no damage, 100 complete death), 14 days after application
In short: as §1

[23] = tested on: green foxtail (Setaria viridis, SETVI); test: as above; conditions: rating scale 0-100 (0 no damage, 100 complete death), 14 days after application
In short: as §1

CCOC(=O)C(Br)Cc1c(OC)c(Cl)cc(F)c1-n1c(=O)cc(C(F)(F)F)n(C)c1=O (single isomer, unassigned) [14-33]
Pre-emerge phytotoxicity rating, crop damage RICE ([1]; 63 g ai/ha): 0
Pre-emerge phytotoxicity rating, crop damage RICE ([1]; 250 g ai/ha): 10
Pre-emerge phytotoxicity rating, crop damage CORN ([2]; 63 g ai/ha): 10
Pre-emerge phytotoxicity rating, crop damage CORN ([2]; 250 g ai/ha): 20
Pre-emerge herbicidal activity, phytotoxicity rating AMARE ([3]; 63 g ai/ha): 100
Pre-emerge herbicidal activity, phytotoxicity rating AMARE ([3]; 250 g ai/ha): 100
Post-emerge phytotoxicity rating RICE (crop damage) ([4]; Rate 63 g ai/ha): 0
Post-emerge phytotoxicity rating RICE (crop damage) ([4]; Rate 250 g ai/ha): 0
Post-emerge phytotoxicity rating CORN (crop damage) ([5]; Rate 63 g ai/ha): 10
Post-emerge phytotoxicity rating CORN (crop damage) ([5]; Rate 250 g ai/ha): 95
Pre-emerge herbicidal activity, phytotoxicity rating CASOB ([6]; 63 g ai/ha): 0
Pre-emerge herbicidal activity, phytotoxicity rating CASOB ([6]; 250 g ai/ha): 0
Pre-emerge herbicidal activity, phytotoxicity rating CHEAL ([7]; 63 g ai/ha): 0
Pre-emerge herbicidal activity, phytotoxicity rating CHEAL ([7]; 250 g ai/ha): 90
Pre-emerge herbicidal activity, phytotoxicity rating SORHA ([8]; 63 g ai/ha): 0
Pre-emerge herbicidal activity, phytotoxicity rating SORHA ([8]; 250 g ai/ha): 30
Pre-emerge herbicidal activity, phytotoxicity rating ABUTH ([9]; 63 g ai/ha): 20
Pre-emerge herbicidal activity, phytotoxicity rating ABUTH ([9]; 250 g ai/ha): 90
Pre-emerge herbicidal activity, phytotoxicity rating ECHCG ([10]; 63 g ai/ha): 0
Pre-emerge herbicidal activity, phytotoxicity rating ECHCG ([10]; 250 g ai/ha): 0
Pre-emerge herbicidal activity, phytotoxicity rating DIGSA ([11]; 63 g ai/ha): 0
Pre-emerge herbicidal activity, phytotoxicity rating DIGSA ([11]; 250 g ai/ha): 99
Pre-emerge herbicidal activity, phytotoxicity rating IPOHE ([12]; 63 g ai/ha): 0
Pre-emerge herbicidal activity, phytotoxicity rating IPOHE ([12]; 250 g ai/ha): 0
Pre-emerge herbicidal activity, phytotoxicity rating SETVI ([13]; 63 g ai/ha): 0
Pre-emerge herbicidal activity, phytotoxicity rating SETVI ([13]; 250 g ai/ha): 50
Post-emerge Herbicidal Activity, phytotoxicity rating CASOB ([14]; Rate 63 g ai/ha): 0
Post-emerge Herbicidal Activity, phytotoxicity rating CASOB ([14]; Rate 250 g ai/ha): 0
Post-emerge Herbicidal Activity, phytotoxicity rating CHEAL ([15]; Rate 63 g ai/ha): 20
Post-emerge Herbicidal Activity, phytotoxicity rating CHEAL ([15]; Rate 250 g ai/ha): 70
Post-emerge Herbicidal Activity, phytotoxicity rating SORHA ([16]; Rate 63 g ai/ha): 10
Post-emerge Herbicidal Activity, phytotoxicity rating SORHA ([16]; Rate 250 g ai/ha): 95
Post-emerge Herbicidal Activity, phytotoxicity rating ABUTH ([17]; Rate 63 g ai/ha): 90
Post-emerge Herbicidal Activity, phytotoxicity rating ABUTH ([17]; Rate 250 g ai/ha): 100
Post-emerge Herbicidal Activity, phytotoxicity rating AMARE ([18]; Rate 63 g ai/ha): 100
Post-emerge Herbicidal Activity, phytotoxicity rating AMARE ([18]; Rate 250 g ai/ha): 100
Post-emerge Herbicidal Activity, phytotoxicity rating AMBEL ([19]; Rate 63 g ai/ha): 0
Post-emerge Herbicidal Activity, phytotoxicity rating AMBEL ([19]; Rate 250 g ai/ha): 100
Post-emerge Herbicidal Activity, phytotoxicity rating ECHCG ([20]; Rate 63 g ai/ha): 100
Post-emerge Herbicidal Activity, phytotoxicity rating ECHCG ([20]; Rate 250 g ai/ha): 100
Post-emerge Herbicidal Activity, phytotoxicity rating DIGSA ([21]; Rate 63 g ai/ha): 70
Post-emerge Herbicidal Activity, phytotoxicity rating DIGSA ([21]; Rate 250 g ai/ha): 100
Post-emerge Herbicidal Activity, phytotoxicity rating IPOHE ([22]; Rate 63 g ai/ha): 20
Post-emerge Herbicidal Activity, phytotoxicity rating IPOHE ([22]; Rate 250 g ai/ha): 20
Post-emerge Herbicidal Activity, phytotoxicity rating SETVI ([23]; Rate 63 g ai/ha): 40
Post-emerge Herbicidal Activity, phytotoxicity rating SETVI ([23]; Rate 250 g ai/ha): 90

COc1c(Cl)cc(F)c(-n2c(=O)cc(C(F)(F)F)n(C)c2=O)c1CC(C)(Cl)C(=O)OC(C)C (centres unmarked) [14-39]
Pre-emerge phytotoxicity rating, crop damage RICE ([1]; 63 g ai/ha): 0
Pre-emerge phytotoxicity rating, crop damage RICE ([1]; 250 g ai/ha): 80
Pre-emerge phytotoxicity rating, crop damage CORN ([2]; 63 g ai/ha): 0
Pre-emerge phytotoxicity rating, crop damage CORN ([2]; 250 g ai/ha): 0
Pre-emerge herbicidal activity, phytotoxicity rating AMARE ([3]; 63 g ai/ha): 100
Pre-emerge herbicidal activity, phytotoxicity rating AMARE ([3]; 250 g ai/ha): 100
Post-emerge phytotoxicity rating RICE (crop damage) ([4]; Rate 63 g ai/ha): 90
Post-emerge phytotoxicity rating RICE (crop damage) ([4]; Rate 250 g ai/ha): 100
Post-emerge phytotoxicity rating CORN (crop damage) ([5]; Rate 63 g ai/ha): 30
Post-emerge phytotoxicity rating CORN (crop damage) ([5]; Rate 250 g ai/ha): 50
Pre-emerge herbicidal activity, phytotoxicity rating CASOB ([6]; 63 g ai/ha): 0
Pre-emerge herbicidal activity, phytotoxicity rating CASOB ([6]; 250 g ai/ha): 20
Pre-emerge herbicidal activity, phytotoxicity rating CHEAL ([7]; 63 g ai/ha): 100
Pre-emerge herbicidal activity, phytotoxicity rating CHEAL ([7]; 250 g ai/ha): 100
Pre-emerge herbicidal activity, phytotoxicity rating SORHA ([8]; 63 g ai/ha): 0
Pre-emerge herbicidal activity, phytotoxicity rating SORHA ([8]; 250 g ai/ha): 60
Pre-emerge herbicidal activity, phytotoxicity rating ABUTH ([9]; 63 g ai/ha): 100
Pre-emerge herbicidal activity, phytotoxicity rating ABUTH ([9]; 250 g ai/ha): 100
Pre-emerge herbicidal activity, phytotoxicity rating ECHCG ([10]; 63 g ai/ha): 10
Pre-emerge herbicidal activity, phytotoxicity rating ECHCG ([10]; 250 g ai/ha): 95
Pre-emerge herbicidal activity, phytotoxicity rating DIGSA ([11]; 63 g ai/ha): 95
Pre-emerge herbicidal activity, phytotoxicity rating DIGSA ([11]; 250 g ai/ha): 100
Pre-emerge herbicidal activity, phytotoxicity rating IPOHE ([12]; 63 g ai/ha): 0
Pre-emerge herbicidal activity, phytotoxicity rating IPOHE ([12]; 250 g ai/ha): 0
Pre-emerge herbicidal activity, phytotoxicity rating SETVI ([13]; 63 g ai/ha): 70
Pre-emerge herbicidal activity, phytotoxicity rating SETVI ([13]; 250 g ai/ha): 100
Post-emerge Herbicidal Activity, phytotoxicity rating CASOB ([14]; Rate 63 g ai/ha): 60
Post-emerge Herbicidal Activity, phytotoxicity rating CASOB ([14]; Rate 250 g ai/ha): 100
Post-emerge Herbicidal Activity, phytotoxicity rating CHEAL ([15]; Rate 63 g ai/ha): 100
Post-emerge Herbicidal Activity, phytotoxicity rating CHEAL ([15]; Rate 250 g ai/ha): 100
Post-emerge Herbicidal Activity, phytotoxicity rating SORHA ([16]; Rate 63 g ai/ha): 30
Post-emerge Herbicidal Activity, phytotoxicity rating SORHA ([16]; Rate 250 g ai/ha): 40
Post-emerge Herbicidal Activity, phytotoxicity rating ABUTH ([17]; Rate 63 g ai/ha): 99
Post-emerge Herbicidal Activity, phytotoxicity rating ABUTH ([17]; Rate 250 g ai/ha): 100
Post-emerge Herbicidal Activity, phytotoxicity rating AMARE ([18]; Rate 63 g ai/ha): 100
Post-emerge Herbicidal Activity, phytotoxicity rating AMARE ([18]; Rate 250 g ai/ha): 100
Post-emerge Herbicidal Activity, phytotoxicity rating AMBEL ([19]; Rate 63 g ai/ha): 50
Post-emerge Herbicidal Activity, phytotoxicity rating AMBEL ([19]; Rate 250 g ai/ha): 50
Post-emerge Herbicidal Activity, phytotoxicity rating ECHCG ([20]; Rate 63 g ai/ha): 100
Post-emerge Herbicidal Activity, phytotoxicity rating ECHCG ([20]; Rate 250 g ai/ha): 100
Post-emerge Herbicidal Activity, phytotoxicity rating DIGSA ([21]; Rate 63 g ai/ha): 60
Post-emerge Herbicidal Activity, phytotoxicity rating DIGSA ([21]; Rate 250 g ai/ha): 100
Post-emerge Herbicidal Activity, phytotoxicity rating IPOHE ([22]; Rate 63 g ai/ha): 20
Post-emerge Herbicidal Activity, phytotoxicity rating IPOHE ([22]; Rate 250 g ai/ha): 50
Post-emerge Herbicidal Activity, phytotoxicity rating SETVI ([23]; Rate 63 g ai/ha): 95
Post-emerge Herbicidal Activity, phytotoxicity rating SETVI ([23]; Rate 250 g ai/ha): 100
